Results reported in ChEMBL document CHEMBL1201862, “PubChem BioAssay data set” (2004).
Activity calls are given as the source filed them.

Assays:
[1] = molecular target: T1, Fructose-bisphosphate aldolase (Mycobacterium tuberculosis, UniProt P9WQA3); experiment: Fluorescence-based biochemical high throughput dose response assay for inhibitors of the fructose-bisphosphate aldolase (FBA) of M. tuberculosis.; assay type: functional
T1 sequence (P9WQA3 whole entry): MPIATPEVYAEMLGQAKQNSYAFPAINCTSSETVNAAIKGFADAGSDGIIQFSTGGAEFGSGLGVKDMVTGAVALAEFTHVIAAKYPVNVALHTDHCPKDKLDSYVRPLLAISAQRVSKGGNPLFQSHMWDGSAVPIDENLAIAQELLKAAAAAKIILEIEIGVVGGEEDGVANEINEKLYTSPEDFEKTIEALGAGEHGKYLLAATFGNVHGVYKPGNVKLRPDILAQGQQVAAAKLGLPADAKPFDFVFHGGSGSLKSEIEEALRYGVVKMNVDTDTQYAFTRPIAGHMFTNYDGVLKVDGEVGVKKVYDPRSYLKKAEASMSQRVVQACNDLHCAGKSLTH

[2] = cells; assay type: functional, cell-based
[3] = molecular target: T2, Nuclear receptor subfamily 0 group B member 1 (Homo sapiens, UniProt P51843); assay type: functional, cell-based;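 also: HEK293T cells transfected with SF-1 and DAX-1 plus StAR promoter luciferase reporter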
T2 sequence (P51843 whole entry): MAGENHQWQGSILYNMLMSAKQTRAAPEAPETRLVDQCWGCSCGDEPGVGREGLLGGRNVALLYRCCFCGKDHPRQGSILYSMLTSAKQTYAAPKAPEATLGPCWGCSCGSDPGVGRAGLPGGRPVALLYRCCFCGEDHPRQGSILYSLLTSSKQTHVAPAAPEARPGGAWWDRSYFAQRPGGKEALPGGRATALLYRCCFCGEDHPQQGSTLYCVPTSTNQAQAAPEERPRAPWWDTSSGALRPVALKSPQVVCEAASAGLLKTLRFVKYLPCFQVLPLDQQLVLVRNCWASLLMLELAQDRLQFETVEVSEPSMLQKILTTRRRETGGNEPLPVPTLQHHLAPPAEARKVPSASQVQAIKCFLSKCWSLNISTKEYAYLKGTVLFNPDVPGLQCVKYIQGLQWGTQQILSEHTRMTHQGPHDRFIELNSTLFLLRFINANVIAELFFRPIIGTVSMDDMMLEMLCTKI

[4] = molecular target: T3, Corticotropin-releasing factor receptor 2/Corticotropin-releasing factor-binding protein (Homo sapiens, UniProt P24387+Q13324); experiment: Dose Response confirmation of uHTS hits for small molecule antagonists of the CRF-binding protein and CRF-R2 receptor complex.; assay type: functional; conditions: read-out: IC50_Mean
T3 sequence (Q13324 whole entry): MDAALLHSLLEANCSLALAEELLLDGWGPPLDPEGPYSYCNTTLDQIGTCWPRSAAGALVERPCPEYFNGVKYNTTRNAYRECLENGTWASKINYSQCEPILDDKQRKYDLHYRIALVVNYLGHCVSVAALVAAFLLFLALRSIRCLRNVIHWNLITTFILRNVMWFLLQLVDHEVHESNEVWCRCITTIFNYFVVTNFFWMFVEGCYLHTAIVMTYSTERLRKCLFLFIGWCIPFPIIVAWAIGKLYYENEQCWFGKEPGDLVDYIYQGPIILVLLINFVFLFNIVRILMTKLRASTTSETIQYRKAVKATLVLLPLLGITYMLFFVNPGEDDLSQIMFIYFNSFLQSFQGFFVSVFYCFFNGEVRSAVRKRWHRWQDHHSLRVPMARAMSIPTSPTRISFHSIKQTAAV
T3 sequence (P24387 whole entry): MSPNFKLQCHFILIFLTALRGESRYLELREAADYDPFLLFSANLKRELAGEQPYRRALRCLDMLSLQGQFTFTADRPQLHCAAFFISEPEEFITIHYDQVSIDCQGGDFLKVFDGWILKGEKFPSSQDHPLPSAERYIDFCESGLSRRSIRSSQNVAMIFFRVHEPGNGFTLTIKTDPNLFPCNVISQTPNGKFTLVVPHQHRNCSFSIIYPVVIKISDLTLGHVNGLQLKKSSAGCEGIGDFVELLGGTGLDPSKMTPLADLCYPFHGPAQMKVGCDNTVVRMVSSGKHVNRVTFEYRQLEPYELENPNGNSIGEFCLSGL

[5] = molecular target: T3, Corticotropin-releasing factor receptor 2/Corticotropin-releasing factor-binding protein; experiment: activators of CRF receptor 2 with binding protein – uHTS hits, confirmation (AID 602473); assay type: functional; conditions: read-out: EC50_Mean
[6] = molecular target: T4, Methionyl-tRNA synthetase, putative (Trypanosoma brucei brucei, UniProt Q38C91); assay type: functional, Trypanosoma brucei brucei strain 927/4 GUTat10.1
T4 sequence (Q38C91 whole entry): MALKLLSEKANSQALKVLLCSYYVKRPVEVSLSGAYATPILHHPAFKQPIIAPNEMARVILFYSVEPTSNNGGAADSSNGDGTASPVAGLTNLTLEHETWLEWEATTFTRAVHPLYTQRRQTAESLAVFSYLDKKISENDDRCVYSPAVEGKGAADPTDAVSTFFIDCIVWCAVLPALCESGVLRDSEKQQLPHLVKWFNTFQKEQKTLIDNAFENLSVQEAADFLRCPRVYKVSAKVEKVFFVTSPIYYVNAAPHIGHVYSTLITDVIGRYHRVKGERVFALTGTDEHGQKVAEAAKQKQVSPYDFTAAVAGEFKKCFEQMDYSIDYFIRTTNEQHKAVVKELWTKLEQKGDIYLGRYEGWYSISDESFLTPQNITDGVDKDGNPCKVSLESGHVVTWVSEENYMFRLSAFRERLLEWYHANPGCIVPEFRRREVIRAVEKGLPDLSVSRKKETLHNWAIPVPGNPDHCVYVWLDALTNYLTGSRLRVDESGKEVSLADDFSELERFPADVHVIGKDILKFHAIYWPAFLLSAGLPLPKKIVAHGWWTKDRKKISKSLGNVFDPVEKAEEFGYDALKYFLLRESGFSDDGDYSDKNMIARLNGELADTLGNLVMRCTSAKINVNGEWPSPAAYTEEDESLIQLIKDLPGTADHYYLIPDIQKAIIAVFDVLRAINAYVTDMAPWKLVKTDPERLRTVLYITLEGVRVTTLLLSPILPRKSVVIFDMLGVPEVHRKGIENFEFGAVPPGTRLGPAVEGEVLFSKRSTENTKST

[7] = Counterscreen for inhibitors of Trypanosoma brucei methionyl tRNA synthetase (MetRS): Luminescence-based cell-based high throughput dose response assay to identify compounds that are cytotoxic to Jurkat human T lymphocyte cells.; assay type: functional
[8] = molecular target: T4, Methionyl-tRNA synthetase, putative; assay type: functional, Trypanosoma brucei brucei strain 927/4 GUTat10.1; remark: listed apart in the source
[9] = molecular target: T5, Fatty acid synthase (Homo sapiens, UniProt P49327); experiment: FAS thioesterase domain inhibitors, dose response, biochemical, endpoint fluorescence intensity, uHTS hits (AID 624327); assay type: functional;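 also: fluorescence from hydrolysis of an O-methyl fluorescein acyl ester substrate by the enzyme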
[10] = molecular target: T5, Fatty acid synthase; experiment: FAS thioesterase domain inhibitors, dose response, biochemical, kinetic fluorescence intensity (AID 624326); assay type: functional;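 also: rate of fluorescence rise from hydrolysis of a fluorogenic O-methyl fluorescein ester substrate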
[11] = molecular target: T6, Histone-lysine N-methyltransferase NSD2 (Homo sapiens, UniProt O96028); assay type: biochemical
T6 sequence (O96028 whole entry): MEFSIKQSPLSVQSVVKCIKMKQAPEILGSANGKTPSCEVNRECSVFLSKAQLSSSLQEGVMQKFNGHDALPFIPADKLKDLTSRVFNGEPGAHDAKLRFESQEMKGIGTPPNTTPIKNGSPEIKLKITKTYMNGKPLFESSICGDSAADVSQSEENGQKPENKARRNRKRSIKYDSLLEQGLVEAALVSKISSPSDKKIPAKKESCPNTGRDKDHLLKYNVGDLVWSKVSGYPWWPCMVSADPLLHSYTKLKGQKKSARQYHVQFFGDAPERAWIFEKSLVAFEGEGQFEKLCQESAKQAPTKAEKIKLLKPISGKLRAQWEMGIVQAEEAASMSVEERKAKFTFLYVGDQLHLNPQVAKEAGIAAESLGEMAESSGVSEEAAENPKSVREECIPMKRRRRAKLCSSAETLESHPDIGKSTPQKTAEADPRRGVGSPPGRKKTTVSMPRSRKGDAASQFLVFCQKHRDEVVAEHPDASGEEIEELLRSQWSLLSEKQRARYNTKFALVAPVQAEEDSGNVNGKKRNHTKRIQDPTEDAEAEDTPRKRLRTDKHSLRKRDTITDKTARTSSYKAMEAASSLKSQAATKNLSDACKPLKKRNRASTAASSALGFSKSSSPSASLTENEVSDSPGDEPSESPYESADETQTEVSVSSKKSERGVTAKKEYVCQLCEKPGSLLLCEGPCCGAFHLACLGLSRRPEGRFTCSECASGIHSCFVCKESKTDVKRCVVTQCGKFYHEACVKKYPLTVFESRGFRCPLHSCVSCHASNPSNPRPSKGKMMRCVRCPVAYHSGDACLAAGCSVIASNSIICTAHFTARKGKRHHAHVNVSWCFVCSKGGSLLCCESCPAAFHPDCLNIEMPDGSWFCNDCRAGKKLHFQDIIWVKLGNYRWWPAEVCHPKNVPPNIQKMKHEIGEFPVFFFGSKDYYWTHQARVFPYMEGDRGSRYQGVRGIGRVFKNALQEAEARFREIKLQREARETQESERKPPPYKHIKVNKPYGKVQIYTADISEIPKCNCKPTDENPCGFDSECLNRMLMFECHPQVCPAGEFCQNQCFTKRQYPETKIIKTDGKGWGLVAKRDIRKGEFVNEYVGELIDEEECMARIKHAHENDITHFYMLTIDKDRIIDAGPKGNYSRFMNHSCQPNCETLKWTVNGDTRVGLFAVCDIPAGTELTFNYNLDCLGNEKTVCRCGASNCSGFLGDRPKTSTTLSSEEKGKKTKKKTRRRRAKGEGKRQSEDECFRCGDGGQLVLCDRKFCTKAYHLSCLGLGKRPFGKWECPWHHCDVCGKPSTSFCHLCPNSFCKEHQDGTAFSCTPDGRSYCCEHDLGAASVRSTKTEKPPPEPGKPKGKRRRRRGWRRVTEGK

[12] = molecular target: Paired box protein Pax-8 (Homo sapiens, UniProt Q06710); experiment: inhibitors of PAX8-driven TPO luciferase reporter, dose response, RMG-I cells, cherry-pick (AID 687027); assay type: functional, cell-based;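 also: luciferase reporter driven by Pax8 target thyroperoxidase promoter measured by SteadyGlo luminescence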
[13] = NIH:OVCAR-3 ovarian cancer cell cytotoxicity, dose response, PAX8 inhibitor project, plate reader, dry powder samples (AID 743044); assay type: functional, cell-based
[14] = IGROV1 ovarian cancer cell cytotoxicity, dose response, PAX8 inhibitor project, plate reader, dry powder samples (AID 743043); assay type: functional, cell-based; conditions: IGROV-1

T5 sequence (P49327 whole entry, the tested form may be a part): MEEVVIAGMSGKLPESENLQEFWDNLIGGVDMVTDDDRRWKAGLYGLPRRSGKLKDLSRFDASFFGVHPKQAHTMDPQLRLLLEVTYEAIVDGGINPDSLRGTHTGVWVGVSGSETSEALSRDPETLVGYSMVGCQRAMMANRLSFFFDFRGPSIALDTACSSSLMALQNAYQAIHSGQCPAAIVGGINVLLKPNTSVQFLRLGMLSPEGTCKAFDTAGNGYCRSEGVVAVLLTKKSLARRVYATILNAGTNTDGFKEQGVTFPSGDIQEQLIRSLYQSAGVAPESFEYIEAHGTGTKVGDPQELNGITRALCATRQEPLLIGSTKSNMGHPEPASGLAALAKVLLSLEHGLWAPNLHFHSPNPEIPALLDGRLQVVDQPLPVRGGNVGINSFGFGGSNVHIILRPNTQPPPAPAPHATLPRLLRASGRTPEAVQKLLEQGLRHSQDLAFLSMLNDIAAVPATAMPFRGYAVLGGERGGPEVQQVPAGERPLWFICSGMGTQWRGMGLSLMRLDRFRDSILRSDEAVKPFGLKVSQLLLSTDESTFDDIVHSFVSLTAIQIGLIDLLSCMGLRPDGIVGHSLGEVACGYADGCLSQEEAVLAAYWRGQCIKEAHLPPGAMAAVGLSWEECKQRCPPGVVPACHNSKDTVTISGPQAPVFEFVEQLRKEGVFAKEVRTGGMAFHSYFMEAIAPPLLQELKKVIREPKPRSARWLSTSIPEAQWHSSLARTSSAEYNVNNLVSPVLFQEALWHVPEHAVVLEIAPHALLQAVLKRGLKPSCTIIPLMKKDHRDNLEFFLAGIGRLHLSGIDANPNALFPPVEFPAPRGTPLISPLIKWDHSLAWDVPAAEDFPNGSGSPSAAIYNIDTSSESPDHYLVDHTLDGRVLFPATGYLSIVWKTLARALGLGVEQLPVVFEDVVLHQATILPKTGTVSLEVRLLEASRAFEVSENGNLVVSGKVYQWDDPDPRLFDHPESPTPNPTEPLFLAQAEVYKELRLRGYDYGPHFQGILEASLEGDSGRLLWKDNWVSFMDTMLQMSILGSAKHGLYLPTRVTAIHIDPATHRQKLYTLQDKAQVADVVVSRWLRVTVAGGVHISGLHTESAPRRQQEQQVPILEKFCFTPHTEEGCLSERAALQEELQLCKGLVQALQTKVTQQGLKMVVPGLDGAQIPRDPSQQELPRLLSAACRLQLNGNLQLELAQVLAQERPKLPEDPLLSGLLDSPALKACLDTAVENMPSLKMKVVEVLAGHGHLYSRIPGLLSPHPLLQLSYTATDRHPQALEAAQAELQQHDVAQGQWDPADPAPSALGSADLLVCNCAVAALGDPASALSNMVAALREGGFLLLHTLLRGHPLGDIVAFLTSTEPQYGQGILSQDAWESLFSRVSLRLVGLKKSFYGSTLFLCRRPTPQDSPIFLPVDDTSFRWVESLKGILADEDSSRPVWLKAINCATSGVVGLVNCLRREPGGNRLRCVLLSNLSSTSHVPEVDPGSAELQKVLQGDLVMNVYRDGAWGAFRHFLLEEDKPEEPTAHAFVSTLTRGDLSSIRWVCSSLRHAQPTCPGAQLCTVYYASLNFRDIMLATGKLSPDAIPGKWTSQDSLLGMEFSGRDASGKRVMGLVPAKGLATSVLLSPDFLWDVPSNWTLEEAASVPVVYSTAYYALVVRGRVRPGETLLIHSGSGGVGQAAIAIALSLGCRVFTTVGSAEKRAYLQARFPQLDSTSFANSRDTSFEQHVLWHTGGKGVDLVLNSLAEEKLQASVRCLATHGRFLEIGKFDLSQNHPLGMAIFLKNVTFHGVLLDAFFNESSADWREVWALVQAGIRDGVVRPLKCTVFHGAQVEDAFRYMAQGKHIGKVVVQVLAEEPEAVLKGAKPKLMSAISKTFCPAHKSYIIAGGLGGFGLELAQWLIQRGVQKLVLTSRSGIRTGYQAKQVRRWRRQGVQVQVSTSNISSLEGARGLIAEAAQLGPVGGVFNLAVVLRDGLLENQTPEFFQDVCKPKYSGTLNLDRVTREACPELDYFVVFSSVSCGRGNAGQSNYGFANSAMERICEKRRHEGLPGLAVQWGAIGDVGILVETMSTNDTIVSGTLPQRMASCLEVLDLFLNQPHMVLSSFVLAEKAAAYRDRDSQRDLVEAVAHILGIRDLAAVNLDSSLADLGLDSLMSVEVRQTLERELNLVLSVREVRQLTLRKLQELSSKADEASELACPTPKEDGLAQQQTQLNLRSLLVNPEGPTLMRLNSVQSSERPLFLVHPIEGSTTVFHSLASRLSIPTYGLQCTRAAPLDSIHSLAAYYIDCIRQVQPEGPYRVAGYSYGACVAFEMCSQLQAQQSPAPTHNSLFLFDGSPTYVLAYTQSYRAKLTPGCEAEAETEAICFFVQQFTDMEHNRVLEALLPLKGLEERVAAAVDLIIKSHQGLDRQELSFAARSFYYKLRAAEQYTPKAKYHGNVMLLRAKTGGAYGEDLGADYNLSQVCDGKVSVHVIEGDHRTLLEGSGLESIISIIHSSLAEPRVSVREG
Chain of Paired box protein Pax-8 (Q06710 whole entry): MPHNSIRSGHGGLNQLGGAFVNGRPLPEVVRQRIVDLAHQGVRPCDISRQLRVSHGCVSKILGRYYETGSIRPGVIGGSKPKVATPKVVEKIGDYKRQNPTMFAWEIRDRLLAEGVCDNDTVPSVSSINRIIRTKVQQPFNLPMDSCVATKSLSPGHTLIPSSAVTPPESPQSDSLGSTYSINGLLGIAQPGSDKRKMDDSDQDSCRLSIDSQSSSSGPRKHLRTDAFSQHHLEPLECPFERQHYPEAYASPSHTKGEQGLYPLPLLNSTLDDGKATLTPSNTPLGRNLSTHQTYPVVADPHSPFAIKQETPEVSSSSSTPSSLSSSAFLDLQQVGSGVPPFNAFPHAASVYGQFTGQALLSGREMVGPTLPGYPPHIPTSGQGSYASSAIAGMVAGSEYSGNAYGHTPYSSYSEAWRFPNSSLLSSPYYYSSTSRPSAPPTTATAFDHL

For Cc1ccccc1NC(=O)Cn1c(C)nc2ccc(N)cc2c1=O, the IC50 [1] was > 1.11 µM (active).

For COCCn1c(C)cc(C(=O)COC(=O)c2ccc(Cl)c(S(N)(=O)=O)c2)c1C, the IC50 [2] was > 67.5 µM (inactive) and the IC50 [3] was > 67.5 µM (inactive).

In the case of O=C(C/C=N\OCc1ccc([N+](=O)[O-])cc1)Nc1ccc(Br)cc1, the IC50 [4] is reported as > 47.1 µM (inactive), the EC50 [5] is reported as > 53 µM (inactive) and the IC50 [6] is reported as 1.25 µM (active). For the same compound, the IC50 [7] was 83.3 µM (inactive), the IC50 [8] was 0.784 µM (active) and the IC50 [9] was 10.1 µM (active). For the same compound, the IC50 [10] was 7.6 µM (active).

With O=C1Nc2c(Cl)cccc2C1=O the AC50 [11] was 9.86 µM (active).

For C[C@H](CO)N1C[C@H](C)[C@@H](CN(C)Cc2ccccc2)Oc2ccc(NC(=O)Nc3ccc(C(F)(F)F)cc3)cc2CC1=O, the AC50 [12] was 9.3 µM (active), the AC50 [13] was 51.8 µM (active) and the AC50 [14] was 46.6 µM (active).

In the case of N#C/C(=N\Nc1cc(Cl)cc(Cl)c1)c1nnc2n1CCCCC2, the IC50 [6] is reported as 27.4 µM (inactive), the IC50 [7] is reported as 83.3 µM (inactive) and the IC50 [8] is reported as 16.6 µM (inactive).

In the case of Oc1ccccc1/C=N/c1cccc2ccccc12, the IC50 [1] is reported as > 3.33 µM (active).
